# Data published in patent US20170071944A1, “MODULATORS OF TOLL-LIKE RECEPTORS FOR THE TREATMENT OF HIV” (Gilead Sciences, Inc., priority 2015, published 2017).
# Test system: HIV-infected CD4 T cells
# Experiment: PGT121 antibody-mediated killing of HIV-infected CD4 T cells, monocyte effector model
# Type: cell-based, human
# Conditions: monocytes from 1 subject, 11 or 33 nM, 1 day
# Source text: NK cells and monocytes mediate antibody-dependent cellular cytotoxicity (ADCC) and antibody-dependent cellular phagocytosis (ADCP) respectively. To assess the ability of the compound of Example 15 to enhance ADCC and ADCP, two models were developed using monocytes or PBMCs as effector cells and HIV-infected CD4 T cells as target cells. PBMCs were isolated from 3 healthy subjects' leukaphereses (AllCells, participant IDs A4593, A4596, A4606), as described above. CD4 T cells were isolated from PBMCs using negative selection magnetic beads (EasySep, StemCell Technologies). CD4 T cells were spinfected with HIV-1 isolate 92HT593 (NIH AIDS Reagent Program) and cultured for 5 days at 37° C. For the PBMC model, autologous PBMCs were cultured for 5 days with vehicle control (DMSO) or Example 15 at 100 or 1000 nM. […] Marker staining was measured by flow cytometry using a LSR Fortessa (BD Biosciences) and analyzed with FlowJo software (TreeStar). The percent killing was determined by calculating the reduction of p24+ CD4+ T cells mediated by PGT121 antibody relative to a no antibody control.
# PBMCs (FIG. 3) or monocytes (FIG. 4) were treated with DMSO or TLR8 agonist for 5 days (FIG. 3) or 1 day (FIG. 4) and then co-cultured for 1 day with autologous HIV-infected CD4 T cells−/+anti-HIV Env antibody PGT121. Reductions in % p24+ CD4+ T cells, relative to no antibody control, were measured by FACS. […]
smiles,measurement,value
CCCC[C@H](CO)Nc1nc(N)nc2cccnc12 [Example 15],PGT121-mediated killing of HIV-infected CD4+ T cells compared to the DMSO control,markedly enhanced
